Results reported in patent US4962097A, “Method of treating bacterial infection with phosphorus containing DHP enzyme inhibitors” (Merck & Co., Inc., priority 1989, dated 1990).

Each compound was assayed against T1, renal dehydropeptidase I (Sus scrofa, UniProt P22412) (assay: in vitro screen: inhibition of hydrolysis of glycyldehydrophenylalanine (GDP) by solubilized renal dipeptidase from hog kidneys (renal dehydropeptidase I inhibition)). Settings: Table I, structure II (olefins); GDP 0.05 mM, 50 mM MOPS pH 7.1, 37° C., 275 nm.
T1 construct: isolated from hog kidneys; from tissue; host or cells: hog kidney
T1 sequence (P22412 17-409): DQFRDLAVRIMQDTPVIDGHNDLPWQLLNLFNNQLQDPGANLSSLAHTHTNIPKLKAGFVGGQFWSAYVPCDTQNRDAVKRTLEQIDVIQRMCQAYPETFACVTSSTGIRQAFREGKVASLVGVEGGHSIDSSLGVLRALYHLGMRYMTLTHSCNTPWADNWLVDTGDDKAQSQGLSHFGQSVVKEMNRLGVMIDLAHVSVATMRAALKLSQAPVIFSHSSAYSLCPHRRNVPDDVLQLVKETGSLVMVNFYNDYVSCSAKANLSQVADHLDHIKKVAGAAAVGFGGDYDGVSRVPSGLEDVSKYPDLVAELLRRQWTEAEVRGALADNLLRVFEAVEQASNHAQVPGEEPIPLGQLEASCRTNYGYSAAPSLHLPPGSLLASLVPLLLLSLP
Assay type: biochemical
Method: This measured the ability of compounds to inhibit hydrolysis of glycyldehydrophenylalanine (GDP) by a solubilized preparation of […] isolated from hog kidneys. The procedure is as follows: to a 1 ml system containing 50 mM "MOPS" (3-(N-morpholino)-propanesulfonic acid) buffer, pH 7.1 is added 5 mg of lyophilized enzyme, and the test compound at a final concentration of 0.1 mM. After a five minute incubation at 37° C., GDP is added to a final concentration of 0.05 mM. Incubation is continued for 10 minutes, at 37° C. and hydroylsis of GDP is measured by the change in optical density with time at 275 nm. Inhibition of the enzyme is gauged by comparison to a standard run containing no inhibitor and is expressed as the inhibitor binding constant K. This is the concentration of the inhibitor which achieves 50% inhibition of the enzyme.

| Compound | Ki |
| --- | --- |
| (1(R)-Amino-2-cyclohexylethyl)2-carboxyl-4-methyl-(E & Z)-2-butenyl phosphinic acids (15C & 15D) [(cyclo-C6 H11)CH2; (CH3)2 CH; RS; Z] [listing 1 of 2 here] | 2.1 nM |
| N[C@@H](CC1CCCCC1)P(=O)(O)C/C(=C\C1CCCCC1)C(=O)O [(cyclo-C6 H11)CH2; cyclo-C6 H11; R; Z, (1(R)-Amino-2-cyclohexylethyl)2-carboxyl-3(Z)-cyclohexyl-2-propenyl phosphinic acid] | 0.52 nM |
| CCCC/C=C(\CP(=O)(O)C(N)CC(C)C)C(=O)O (centres unmarked) [(CH3)2 CHCH2; CH3 (CH2)3; RS; Z] | 1.6 nM |
| NC(CC1CCCCC1)P(=O)(O)C/C(=C\C1CCCCC1)C(=O)O (centres unmarked) [(cyclo-C6 H11)CH2; cyclo-C6 H11; RS; Z, (1-Amino-2-cyclohexylethyl) 2-carboxy-3(Z)-cyclohexyl-2-propenyl phosphinic acid] | 0.9 nM |
| CC(C)/C=C(\CP(=O)(O)[C@@H](N)CC1CCCCC1)C(=O)O [(cyclo-C6 H11)CH2; (CH3)2 CH; R; Z] | 0.54 nM |
| CCCCC/C=C(\CP(=O)(O)C(N)CCCCC)C(=O)O (centres unmarked) [CH3 (CH2)4; CH3 (CH2)4; RS; Z, (1-Aminohexyl) 2-carboxy-2(Z)-octenyl phosphinic acid] | 1.4 nM |
| CCCCCC(N)P(=O)(O)C/C(=C\C1CCCCC1)C(=O)O (centres unmarked) [CH3 (CH2)4; cyclo-C6 H11; RS; Z, (1-Aminohexyl) 2-carboxy-3-cyclohexyl-2(Z)-propenyl phosphinic acid] | 0.5 nM |
| N[C@@H](CC1CCCCC1)P(=O)(O)C/C(=C\CC1CCCC1)C(=O)O [(1(R)-Amino-2-cyclohexylethyl)2-carboxy-4-cyclopentyl-2(Z)-butenyl phosphinic acid] | 0.86 nM |
| CCCCC/C=C(\CP(=O)(O)C(N)Cc1ccccc1)C(=O)O (centres unmarked) [PhCH2; CH3 (CH2)4; RS; Z] | 68 nM |
| (1(R)-Amino-2-cyclohexylethyl)2-carboxyl-4-methyl-(E & Z)-2-butenyl phosphinic acids (15C & 15D) [(cyclo-C6 H11)CH2; (CH3)2 CH; RS; Z] [listing 2 of 2 here] | 21 nM |
| CCCCC/C=C(\CP(=O)(O)C(N)CC1CCCCC1)C(=O)O (centres unmarked) [(cyclo-C6 H11)CH2; CH3 (CH2)4; RS; Z, (1-Amino-2-cyclohexylethyl) 2-carboxy-2(Z)-octenyl phosphinic acid] | 3.1 nM |

Same assay, conditions: Table II, structure I (saturated); GDP 0.05 mM, 50 mM MOPS pH 7.1, 37° C., 275 nm

| Compound | Ki |
| --- | --- |
| CCCCC(CP(=O)(O)C(N)CC(C)C)C(=O)O (centres unmarked) [(CH3)2 CHCH2; CH3 (CH2)3; RS; RS, 1-Amino-3-methylbutyl-[2-carboxy-1-hexyl]phosphinic acid] | 2.4 nM |
| CCCCCCC(CP(=O)(O)C(N)CCCCC)C(=O)O (racemic) [CH3 (CH2)4; CH3 (CH2)5; RS; RS, (1-Amino-1hexyl) 2-carboxy-l-octyl phosphinic acid] | 8 nM |
| CCCCC(CP(=O)(O)C(N)CC)C(=O)O (racemic) [CH3 CH2; CH3 (CH2)3; RS; RS, 1-Aminopropyl-[2-carboxy-l-hexyl]phosphinic acid] | 2.3 nM |
| CCC(N)P(=O)(O)CC(CCc1ccccc1)C(=O)O (racemic) [CH3 CH2; Ph(CH2)2; RS; RS, 1-Aminopropyl-[2-carboxy-4-phenyl-l-butyl]phosphinic acid] | 6.8 nM |
| CCCCCCC(CP(=O)(O)C(N)CC1CCCCC1)C(=O)O (centres unmarked) [(cyclo-C6 H11)CH2; CH3 (CH2)5; RS; RS, (1-Amino-2-cyclohexylethyl) 2-carboxy-1-octyl phosphinic acid] | 1.6 nM |
| N[C@@H](CC1CCCCC1)P(=O)(O)CC(CCCc1ccncc1)C(=O)O (some centres unmarked) [(1-Amino-2-cyclohexylethyl)-2-carboxy-5-(4-pyridyl)-pentyl phosphinic acid] | 4 nM |
| CCCCCC(N)P(=O)(O)CC(CCC1CCCC1)C(=O)O (racemic) [CH3 (CH2)4; (cyclo-C5 H9)CH2 CH2; RS; RS, (1-Amino-1-hexyl) 2-carboxy-4-cyclopenyl-1-butyl phosphinic acid] | 7 nM |
| CCCCC(CP(=O)(O)C(N)Cc1ccccc1)C(=O)O (centres unmarked) [PhCH2; CH3 (CH2)3; RS; RS, 1-Amino-2-phenylethyl-[2-carboxy-1-hexyl]phosphinic acid] | 84 nM |
| CCCCCC(N)P(=O)(O)CC(CC1CCCCC1)C(=O)O (centres unmarked) [CH3 (CH2)4; (cyclo-C6 H11)CH2; RS; RS, (1-Amino-1-hexyl) 2-carboxy-3-cyclohexyl-1-propyl phosphinic acid] | 9.7 nM |
| N[C@@H](CC1CCCCC1)P(=O)(O)CC(CC1CCCCC1)C(=O)O (some centres unmarked) [(1-Amino-2-cyclohexylethyl)-2-carboxy-3-cyclohexyl-1-propyl phosphinic acid] | 0.5 nM |
| CCC(CP(=O)(O)C(N)CC)C(=O)O (racemic) [CH3 CH2; CH3 CH2; RS; RS, 1-Aminopropyl-[2-carboxy-l-butyl]phosphinic acid] | 1.3 nM |
| N[C@@H](CC1CCCCC1)P(=O)(O)CC(CCC1CCCC1)C(=O)O (some centres unmarked) [(1-Amino-2-cyclohexylethyl) 2-carboxy-4-cyclopentyl-1-butyl phosphinic acid] | 2.7 nM |
